Results reported in ChEMBL document CHEMBL1201861, “Genomics of Drug Sensitity in Cancer screening data, Wellcome Trust Sanger Institute”.

Key:
Assay in all cases: cells
Type in all cases: functional, cell-based, Homo sapiens
[1] = test system: EFO-27; conditions: Homo sapiens, EFO-27;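 note: growth inhibition of EFO-27 cells, read out with a cell viability assay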
Description: SANGER: Inhibition of human EFO-27 cell growth in a cell viability assay.

[2] = test system: EW-22; conditions: Homo sapiens, EW-22;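 note: growth inhibition of the EW-22 cell line, measured with a cell viability readout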
Description: SANGER: Inhibition of human EW-22 cell growth in a cell viability assay.

[3] = test system: HCC1419; conditions: Homo sapiens, HCC1419;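 note: growth inhibition of human HCC1419 cells, read out as cell viability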
Description: SANGER: Inhibition of human HCC1419 cell growth in a cell viability assay.

[4] = test system: SW1710; conditions: Homo sapiens, SW1710;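 note: growth inhibition of SW1710 cells, determined with a cell viability assay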
Description: SANGER: Inhibition of human SW1710 cell growth in a cell viability assay.

[5] = test system: DMS-273; conditions: Homo sapiens, DMS-273
Description: SANGER: Inhibition of human DMS-273 cell growth in a cell viability assay.

[6] = test system: CAPAN-1; conditions: Homo sapiens, CAPAN-1;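 note: growth suppression of CAPAN-1 cells, read out by a cell viability assay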
Description: SANGER: Inhibition of human CAPAN-1 cell growth in a cell viability assay.

[7] = test system: CAL-72; conditions: Homo sapiens, CAL-72;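 note: cell viability assay measuring inhibition of proliferation in the CAL-72 cell line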
Description: SANGER: Inhibition of human CAL-72 cell growth in a cell viability assay.

[8] = test system: P12-Ichikawa; conditions: Homo sapiens, P12-Ichikawa
[9] = test system: NCI-H1623; conditions: Homo sapiens, NCI-H1623;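 note: cell viability assay used as the read-out for growth inhibition of NCI-H1623 cells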
Description: SANGER: Inhibition of human NCI-H1623 cell growth in a cell viability assay.

[10] = test system: HCC1395; conditions: Homo sapiens, HCC1395;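 note: growth inhibition of HCC1395 cells, read out by a cell viability assay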
Description: SANGER: Inhibition of human HCC1395 cell growth in a cell viability assay.

[11] = test system: NB14; conditions: Homo sapiens, NB14;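 note: growth inhibition of NB14 cells measured with a cell viability assay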
Description: SANGER: Inhibition of human NB14 cell growth in a cell viability assay.

[12] = test system: RD; conditions: Homo sapiens, RD
Description: SANGER: Inhibition of human RD cell growth in a cell viability assay.

[13] = test system: C3A; conditions: Homo sapiens, C3A;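 note: growth inhibition of C3A human cells, quantified with a cell viability readout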
Description: SANGER: Inhibition of human C3A cell growth in a cell viability assay.

[14] = test system: BT-20; conditions: Homo sapiens, BT-20;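 note: cell viability assay measuring suppression of growth in human BT-20 cells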
Description: SANGER: Inhibition of human BT-20 cell growth in a cell viability assay.

[15] = test system: RERF-LC-MS; conditions: Homo sapiens, RERF-LC-MS;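 note: growth inhibition of human RERF-LC-MS cells, read out by a cell viability assay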
Description: SANGER: Inhibition of human RERF-LC-MS cell growth in a cell viability assay.

[16] = test system: FaDu; conditions: Homo sapiens, FaDu;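 note: cell viability readout of growth inhibition in FaDu cells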
Description: SANGER: Inhibition of human FADU cell growth in a cell viability assay.

[17] = test system: HTC-C3; conditions: Homo sapiens, HTC-C3;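 note: inhibition of cell growth, read out with a cell viability assay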
Description: SANGER: Inhibition of human HTC-C3 cell growth in a cell viability assay.

[18] = test system: SW948; conditions: Homo sapiens, SW948;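 note: growth inhibition of SW948 cells, read out with a cell viability assay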
Description: SANGER: Inhibition of human SW948 cell growth in a cell viability assay.

[19] = test system: BCPAP; conditions: Homo sapiens, BCPAP;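 note: growth inhibition of BCPAP cells, read out in a cell viability assay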
Description: SANGER: Inhibition of human BCPAP cell growth in a cell viability assay.

[20] = test system: 8305C; conditions: Homo sapiens, 8305C
Description: SANGER: Inhibition of human 8305C cell growth in a cell viability assay.

[21] = test system: 23132-87; conditions: Homo sapiens
Description: SANGER: Inhibition of human 23132-87 cell growth in a cell viability assay.

[22] = test system: SW48; conditions: Homo sapiens, SW48;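 note: growth inhibition of SW48 cells, read out with a cell viability assay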
Description: SANGER: Inhibition of human SW48 cell growth in a cell viability assay.

[23] = test system: KU-19-19; conditions: Homo sapiens, KU-19-19
Description: SANGER: Inhibition of human KU-19-19 cell growth in a cell viability assay.

[24] = test system: NCI-H441; conditions: Homo sapiens, NCI-H441;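 note: growth inhibition of NCI-H441 cells, read out with a cell viability assay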
Description: SANGER: Inhibition of human NCI-H441 cell growth in a cell viability assay.

[25] = test system: D-336MG; conditions: Homo sapiens, D-336MG
Description: SANGER: Inhibition of human D-336MG cell growth in a cell viability assay.

[26] = test system: NCI-H650; conditions: Homo sapiens, NCI-H650;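 note: growth inhibition of NCI-H650 cells, read out by a viability assay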
Description: SANGER: Inhibition of human NCI-H650 cell growth in a cell viability assay.

[27] = test system: SW626; conditions: Homo sapiens, SW626;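 note: growth inhibition of SW626 cells, measured with a cell viability assay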
Description: SANGER: Inhibition of human SW626 cell growth in a cell viability assay.

[28] = test system: CAL-120; conditions: Homo sapiens, CAL-120;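 note: cell growth inhibition, read out as cell viability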
Description: SANGER: Inhibition of human CAL-120 cell growth in a cell viability assay.

[29] = test system: 5637; conditions: Homo sapiens
Description: SANGER: Inhibition of human 5637 cell growth in a cell viability assay.

[30] = test system: NCI-H2405; conditions: Homo sapiens, NCI-H2405;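 note: growth inhibition of the human cell line, read out with a cell viability assay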
Description: SANGER: Inhibition of human NCI-H2405 cell growth in a cell viability assay.

[31] = test system: OE19; conditions: Homo sapiens, OE19;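 note: growth inhibition of OE19 cells, measured through a cell viability read-out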
Description: SANGER: Inhibition of human OE19 cell growth in a cell viability assay.

[32] = test system: TCC-SUP; conditions: Homo sapiens, TCC-SUP;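 note: growth inhibition of TCC-SUP cells, read out with a cell viability assay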
Description: SANGER: Inhibition of human TCCSUP cell growth in a cell viability assay.

[33] = test system: T-24; conditions: Homo sapiens, T-24;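 note: growth inhibition of T-24 cells, read out with a cell viability assay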
Description: SANGER: Inhibition of human T-24 cell growth in a cell viability assay.

[34] = test system: SKG-IIIa; conditions: Homo sapiens, SKG-IIIa;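 note: cell growth inhibition, read out with a cell viability assay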
Description: SANGER: Inhibition of human SKG-IIIa cell growth in a cell viability assay.

[35] = test system: J82; conditions: Homo sapiens, J82;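 note: growth inhibition of J82 cells, read out with a cell viability assay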
Description: SANGER: Inhibition of human J82 cell growth in a cell viability assay.

[36] = test system: NCI-H2452; conditions: Homo sapiens, NCI-H2452;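 note: growth inhibition of NCI-H2452 cells, read out with a cell viability assay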
Description: SANGER: Inhibition of human NCI-H2452 cell growth in a cell viability assay.

[37] = test system: AGS; conditions: Homo sapiens, AGS;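 note: growth inhibition of AGS cells, determined with a cell viability assay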
Description: SANGER: Inhibition of human AGS cell growth in a cell viability assay.

[38] = test system: SiHa; conditions: Homo sapiens, SiHa;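 note: Viability-based readout of growth inhibition in SiHa cells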
Description: SANGER: Inhibition of human SiHa cell growth in a cell viability assay.

SMILES	IC50 [1]	IC50 [2]	IC50 [3]	IC50 [4]	IC50 [5]	IC50 [6]	IC50 [7]	IC50 [8]	IC50 [9]	IC50 [10]	IC50 [11]	IC50 [12]	IC50 [13]	IC50 [14]	IC50 [15]	IC50 [16]	IC50 [17]	IC50 [18]	IC50 [19]	IC50 [20]	other results
Cc1cn(-c2cc(NC(=O)c3ccc(C)c(Nc4nccc(-c5cccnc5)n4)c3)cc(C(F)(F)F)c2)cn1 [NILOTINIB]	> 2000 nM	> 2000 nM	> 2000 nM	> 2000 nM	> 2000 nM	> 2000 nM	> 2000 nM	> 2000 nM	> 2000 nM	> 2000 nM	> 2000 nM	> 2000 nM	> 2000 nM	> 2000 nM	> 2000 nM	> 2000 nM	> 2000 nM	> 2000 nM	> 2000 nM	> 2000 nM	IC50 [21]: > 2000 nM; IC50 [22]: > 2000 nM; IC50 [23]: > 2000 nM; IC50 [24]: > 2000 nM; IC50 [25]: > 2000 nM; IC50 [26]: > 2000 nM; IC50 [27]: > 2000 nM; IC50 [28]: > 2000 nM; IC50 [29]: > 2000 nM; IC50 [30]: > 2000 nM; IC50 [31]: > 2000 nM; IC50 [32]: > 2000 nM; IC50 [33]: > 2000 nM; IC50 [34]: > 2000 nM; IC50 [35]: > 2000 nM; IC50 [36]: > 2000 nM; IC50 [37]: > 2000 nM; IC50 [38]: > 2000 nM
CO[C@H]1C[C@@H]2CC[C@@H](C)[C@@](O)(O2)C(=O)C(=O)N2CCCC[C@H]2C(=O)O[C@H]([C@H](C)C[C@@H]2CC[C@@H](OC(=O)C(C)(CO)CO)[C@H](OC)C2)CC(=O)[C@H](C)/C=C(\C)[C@@H](O)[C@@H](OC)C(=O)[C@H](C)C[C@H](C)/C=C/C=C/C=C/1C [TEMSIROLIMUS]	33.1 nM	> 200 nM	25.8 nM	189 nM	> 200 nM	> 200 nM	> 200 nM	13 nM	> 200 nM	> 200 nM	100 nM	144 nM	> 200 nM	> 200 nM	> 200 nM	> 200 nM	68.2 nM	> 200 nM	58.5 nM	> 200 nM	IC50 [21]: 64.7 nM; IC50 [22]: > 200 nM; IC50 [23]: > 200 nM; IC50 [24]: > 200 nM; IC50 [25]: 76 nM; IC50 [26]: > 200 nM; IC50 [27]: > 200 nM; IC50 [28]: > 200 nM; IC50 [29]: > 200 nM; IC50 [30]: > 200 nM; IC50 [31]: > 200 nM; IC50 [32]: 82.3 nM; IC50 [33]: 13.9 nM; IC50 [34]: > 200 nM; IC50 [35]: 148 nM; IC50 [36]: > 200 nM; IC50 [37]: 14.1 nM; IC50 [38]: > 200 nM
